PubChem BioAssay (NCI)
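Tested at 5 concentrations; 48 h exposure; 96-well plates; endpoints linearly interpolated, else capped at highest concentration. GI50 marks 50% less growth. Definition used: TGI = concentration required for complete inhibition of growth.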

Assays:
Assay in all cases: NCI anticancer screen, dose series, 48 h
786-0 renal = tested on: 786-0 renal
A498 renal = tested on: A498 renal
A549 NSCLC = tested on: A549 NSCLC
ACHN renal = tested on: ACHN renal
BT-549 breast = tested on: BT-549 breast
CAKI-1 renal = tested on: CAKI-1 renal
CCRF-CEM leukemia = tested on: CCRF-CEM leukemia
COLO 205 colon = tested on: COLO 205 colon
DU-145 prostate = tested on: DU-145 prostate
EKVX NSCLC = tested on: EKVX NSCLC
HCC-2998 colon = tested on: HCC-2998 colon
HCT-116 colon = tested on: HCT-116 colon
HCT-15 colon = tested on: HCT-15 colon
HOP-62 NSCLC = tested on: HOP-62 NSCLC
HOP-92 NSCLC = tested on: HOP-92 NSCLC
HS 578T breast = tested on: HS 578T breast
HT29 colon = tested on: HT29 colon
IGROV1 ovarian = tested on: IGROV1 ovarian
K-562 leukemia = tested on: K-562 leukemia
KM12 colon = tested on: KM12 colon
LOX IMVI melanoma = tested on: LOX IMVI melanoma
M14 melanoma = tested on: M14 melanoma
MCF7 breast = tested on: MCF7 breast
MDA-MB-231 breast = tested on: MDA-MB-231 breast
MDA-MB-435 = tested on: MDA-MB-435
MOLT-4 leukemia = tested on: MOLT-4 leukemia
NCI-H226 lung = tested on: NCI-H226 lung
NCI-H23 lung = tested on: NCI-H23 lung
NCI-H460 lung = tested on: NCI-H460 lung
NCI-H522 lung = tested on: NCI-H522 lung
NCI/ADR-RES ovarian = tested on: NCI/ADR-RES ovarian
OVCAR-3 ovarian = tested on: OVCAR-3 ovarian
OVCAR-4 ovarian = tested on: OVCAR-4 ovarian
OVCAR-5 ovarian = tested on: OVCAR-5 ovarian
OVCAR-8 ovarian = tested on: OVCAR-8 ovarian
PC-3 prostate = tested on: PC-3 prostate
RPMI-8226 leukemia = tested on: RPMI-8226 leukemia
RXF 393 renal = tested on: RXF 393 renal
SF-268 CNS = tested on: SF-268 CNS
SF-295 CNS = tested on: SF-295 CNS
SF-539 CNS = tested on: SF-539 CNS
SK-MEL-2 melanoma = tested on: SK-MEL-2 melanoma
SK-MEL-28 melanoma = tested on: SK-MEL-28 melanoma
SK-MEL-5 melanoma = tested on: SK-MEL-5 melanoma
SK-OV-3 ovarian = tested on: SK-OV-3 ovarian
SN12C renal = tested on: SN12C renal
SNB-19 CNS = tested on: SNB-19 CNS
SNB-75 CNS = tested on: SNB-75 CNS
SW-620 colon = tested on: SW-620 colon
T-47D breast = tested on: T-47D breast
TK-10 renal = tested on: TK-10 renal
U251 CNS = tested on: U251 CNS
UACC-257 melanoma = tested on: UACC-257 melanoma
UACC-62 melanoma = tested on: UACC-62 melanoma
UO-31 renal = tested on: UO-31 renal

ClCc1cccc(Cn2cnc3c(Cl)ncnc32)c1
GI50 (786-0 renal): 6.17 µM
TGI (786-0 renal): 19.7 µM
GI50 (A498 renal): 17.3 µM
TGI (A498 renal): 31.9 µM
GI50 (A549 NSCLC): 19.4 µM
TGI (A549 NSCLC): 39.4 µM
GI50 (ACHN renal): 2.08 µM
TGI (ACHN renal): 4.09 µM
GI50 (BT-549 breast): 15.3 µM
TGI (BT-549 breast): 30.2 µM
GI50 (CAKI-1 renal): 1.53 µM
TGI (CAKI-1 renal): 2.93 µM
GI50 (CCRF-CEM leukemia): 1.91 µM
TGI (CCRF-CEM leukemia): 3.85 µM
GI50 (COLO 205 colon): 3.09 µM
TGI (COLO 205 colon): 10.5 µM
GI50 (DU-145 prostate): 11.2 µM
TGI (DU-145 prostate): 24 µM
GI50 (EKVX NSCLC): 18.6 µM
TGI (EKVX NSCLC): 34.1 µM
GI50 (HCC-2998 colon): 0.407 µM
TGI (HCC-2998 colon): 1.75 µM
GI50 (HCT-116 colon): 1.48 µM
TGI (HCT-116 colon): 3.07 µM
GI50 (HCT-15 colon): 2.17 µM
TGI (HCT-15 colon): 4.64 µM
GI50 (HOP-62 NSCLC): 2.6 µM
TGI (HOP-62 NSCLC): 5.11 µM
GI50 (HOP-92 NSCLC): 2.46 µM
TGI (HOP-92 NSCLC): 6.22 µM
GI50 (HS 578T breast): 3.48 µM
TGI (HS 578T breast): 11.5 µM
GI50 (HT29 colon): 3.25 µM
TGI (HT29 colon): > 100 µM
GI50 (IGROV1 ovarian): 9.31 µM
TGI (IGROV1 ovarian): 33.5 µM
GI50 (K-562 leukemia): 3.56 µM
TGI (K-562 leukemia): 15.2 µM
GI50 (KM12 colon): 3.47 µM
TGI (KM12 colon): 13.4 µM
GI50 (LOX IMVI melanoma): 1.96 µM
TGI (LOX IMVI melanoma): 5.02 µM
GI50 (M14 melanoma): 1.66 µM
TGI (M14 melanoma): 3.31 µM
GI50 (MCF7 breast): 7.8 µM
TGI (MCF7 breast): 77.7 µM
GI50 (MDA-MB-231 breast): 1.99 µM
TGI (MDA-MB-231 breast): 4.04 µM
GI50 (MDA-MB-435): 1.69 µM
TGI (MDA-MB-435): 3.29 µM
GI50 (MOLT-4 leukemia): 15.8 µM
TGI (MOLT-4 leukemia): 37.4 µM
GI50 (NCI-H226 lung): 2.15 µM
TGI (NCI-H226 lung): 4.38 µM
GI50 (NCI-H23 lung): 1.92 µM
TGI (NCI-H23 lung): 4.07 µM
GI50 (NCI-H460 lung): 11.7 µM
TGI (NCI-H460 lung): 36 µM
GI50 (NCI-H522 lung): 18.6 µM
TGI (NCI-H522 lung): 65.4 µM
GI50 (NCI/ADR-RES ovarian): 2.43 µM
TGI (NCI/ADR-RES ovarian): 7.62 µM
GI50 (OVCAR-3 ovarian): 1.63 µM
TGI (OVCAR-3 ovarian): 3.05 µM
GI50 (OVCAR-4 ovarian): 2.35 µM
TGI (OVCAR-4 ovarian): 5.69 µM
GI50 (OVCAR-5 ovarian): 2.08 µM
TGI (OVCAR-5 ovarian): 4.32 µM
GI50 (OVCAR-8 ovarian): 22.1 µM
TGI (OVCAR-8 ovarian): 42 µM
GI50 (PC-3 prostate): 4.18 µM
TGI (PC-3 prostate): 18.3 µM
GI50 (RPMI-8226 leukemia): 3.82 µM
TGI (RPMI-8226 leukemia): 16.1 µM
GI50 (RXF 393 renal): 2.28 µM
TGI (RXF 393 renal): 24 µM
GI50 (SF-268 CNS): 3.53 µM
TGI (SF-268 CNS): 15.3 µM
GI50 (SF-295 CNS): 3.25 µM
TGI (SF-295 CNS): 8.68 µM
GI50 (SF-539 CNS): 20.1 µM
TGI (SF-539 CNS): 35.3 µM
GI50 (SK-MEL-2 melanoma): 22.1 µM
TGI (SK-MEL-2 melanoma): 51.1 µM
GI50 (SK-MEL-28 melanoma): 2.23 µM
TGI (SK-MEL-28 melanoma): 5.69 µM
GI50 (SK-MEL-5 melanoma): 2.3 µM
TGI (SK-MEL-5 melanoma): 6.38 µM
GI50 (SK-OV-3 ovarian): 3.31 µM
TGI (SK-OV-3 ovarian): 10.6 µM
GI50 (SN12C renal): 2.32 µM
TGI (SN12C renal): 5.13 µM
GI50 (SNB-19 CNS): 2.66 µM
TGI (SNB-19 CNS): 12.5 µM
GI50 (SNB-75 CNS): 2.09 µM
TGI (SNB-75 CNS): 4.56 µM
GI50 (SW-620 colon): 2.12 µM
TGI (SW-620 colon): 4.33 µM
GI50 (T-47D breast): 3.02 µM
TGI (T-47D breast): 12.3 µM
GI50 (TK-10 renal): 4.59 µM
TGI (TK-10 renal): 16.1 µM
GI50 (U251 CNS): 1.8 µM
TGI (U251 CNS): 3.48 µM
GI50 (UACC-257 melanoma): 20.2 µM
TGI (UACC-257 melanoma): 37.1 µM
GI50 (UACC-62 melanoma): 1.82 µM
TGI (UACC-62 melanoma): 3.4 µM
GI50 (UO-31 renal): 14.4 µM
TGI (UO-31 renal): 35.9 µM
